Measurements: US12410358B2, “Organic acid-based enhanced waterflooding” (UNIVERSITY OF WYOMING, priority 2018, dated 2025)

How the values were obtained:
[1] = Emulsion stability by TD-NMR droplet-size distribution; type: physicochemical; conditions: for Δd3 day 5 / Δσ day 5 / Δd3 day 14 / Δσ day 14: 1 mM acid in 1% Na2SO4, 1:1 with GB oil; for Δd3 day 5 / Δσ day 5: change days 1-5; for Δd3 day 14 / Δσ day 14: change days 1-14; for effect on emulsion stability compared to 1% Na2SO4 brine: 1 mM acid, day 14
Procedure: Dispersions were prepared in a 1:1 volume ratio with GB oil to each acid (1 mM) in the 1% Na2SO4 brine. The dispersions were emulsified via […] at 6500 rpm for 30 seconds in an Ultra Turrax T25 basic (IKA-Werke) homogenizer. The emulsions were then homogenized for 3 minutes at 6500 rpm to obtain homogeneous droplets for characterization.
Water-in-oil emulsions were prepared for each acid and the time evolution was tracked on a Bruker Biospin Minispec mq20 time domain nuclear magnetic resonance (TD-NMR). This instrument provides information about the polydispersity (σ) of the system and the diameter size (di). The variable i can represent either the diameter in terms of the number of droplets (1=0) or the diameter in terms of average volume of the droplets (1=3). The unimodal droplet size distribution for the created emulsions can be calculated according to Equation 2:
[formula] where qi is the log-normal distribution, d50,i is the geometric mean diameter. Bruker software is used for the NMR and that calculated the droplet size distribution. The change in diameter in relation to the volume is useful because it is indicative of coalescence.
This technique is advantageous as it is non-invasive and independent of the opacity of the dispersion. […] Droplet coalescence and emulsion stability was inferred by tracking the droplet-size distribution density over time.
The influence of the specific acids on coalescence was evaluated with restricted diffusion in a time-domain nuclear magnetic resonance (TD-NMR) system. […] Measurements were recorded within the first hour after emulsification, and every day for days 1-5, and then on days 7, 10, and 14. The TD-NMR system calculates a median diameter, which relates to the number of droplets present (d0) and the volume of the droplets present (d3). […] The Bruker system software also provides a standard deviation, σ, which is applicable for both diameter values and relates to the polydispersity of the droplets in solution.

[2] = Interfacial shear viscoelasticity, double-wall ring rheometer; type: physicochemical; conditions: for tan (δ) / Fractional G′ / Fractional G″: 1 mM acid in 1% Na2SO4 brine, 25° C.; for tan (δ): compared to the brine; for Fractional G′ / Fractional G″: compared to the brine viscoelastic moduli
Procedure: Rheological experiments were conducted with the GB oil and a low-salinity brine (1% Na2SO4) spiked with low concentration of organic acids using a TA Instruments AR-G2 Rheometer with a double-wall ring geometry. Measurement of the oil-water interface was performed using the rheometer, as the ring of the rheometer was placed directly on the denser phase, with the second phase added carefully at the end. The shear viscoelasticities were recorded at 25° C. Measurements were run in oscillatory time-sweep mode to measure the shear viscoelastic moduli, as the oscillatory time-sweep mode has high sensitivity to measure low frequency and torque values.
The stress response of the oil-water interface can be calculated utilizing Equation 1: σ(t)=γo[G′(ω)sin(ωt)+G″(ω)cos(ωt)] where σ represents the shear stress, t represents the time, γo is the amplitude of the strain, G′(ω) is the elastic or real modulus, and G″(ω) is the viscous or imaginary modulus. The elastic modulus is the instantaneous response to stress and the viscous modulus is the delayed response quantified by a phase angle. The tangent of this angle is represented by the following equation: […]
Experiments were run in the linear viscoelastic region, determined with a strain sweep test at fixed frequency on individual samples to determine appropriate values for each parameter in the following experiments.
The rheometer was cleaned with toluene and methanol and then air-dried; the Pt/Ir ring of the rheometer was flamed to remove residual contaminants and salts before each experiment. The rheometer was positioned on an air-table and was calibrated for geometry, inertia, and friction before each experiment was prepared. The brine was filtered through a 0.45 μm SFCA filter and examined for bubbles before the ring was lowered to sit at the interface. Next, the oil was added on top of the brine in a manner selected to avoid disruption of the interface formed. Without moving the table, the setup was covered and allowed to run for a minimum of five days. The viscoelasticity was measured several times during the first day and then routinely once a day for the remainder of the experiment duration. The temperature was controlled with the Peltier plate beneath the sample holder. When cleaning the rheometer at the end of the experiment, care was taken to recover as much aqueous phase as possible for NMR and pH measurements.
The interfacial viscoelasticity measurements were conducted on samples having a ratio of two parts aqueous phase to one part oil phase. […]

[3] = Oil bridge neck diameter / snap-off experiment; conditions: 1 mM acid in 1% Na2SO4, GB oil bridge; for delay of snap-off / bridge failure compared to low-salinity brine: 1 hour aging
From the text: A bridge technique was executed on a modified First Ten Angstroms (FTA) 1000 pendant drop instrument using two opposing vertical needles. The slenderness ratio (A) is defined as the length of the bridge (L) divided by the diameter of the needle (D). A large slenderness ratio is associated with an unstable bridge. The bridge goes through at least two processes. First the oil is bridged between the opposing needles, suspended in the brine and aged up to one hour. While the bridge is aging, the interfacial elasticity increases and the interfacial tension decreases. There are no disruptions or deformation of the system, and thus the surface stress is equal to the interfacial tension. After aging, the bridge goes under the second process during which the oil comprising the bridge is removed at 0.1 μL/s. This response is tracked until bridge failure. During this process, due to the increase in the elasticity of the interface, an extensional longitudinal and compressive circumferential surface stress contribute to the process. The behavior of the oil when the bridge breaks is indicative of the dominant environment of the oil-water interface—e.g., whether the environment is characteristic of an elastic break or an inelastic break. An enhanced elastic break, resulting from the formation of a thick interface, can appear as pointy interface and can show very little recovery of its initial shape, while a viscous break can reform the initial appearance of the oil before the formation of the bridge as shown in FIGS. 8A-8C. FIG. 8A is an image of the bridge initially before any aging or oil removal. FIG. 8B is an image showing the behavior observed in an inelastic break, and FIG. 8C is an image showing the behavior observed in an elastic break. Increased viscoelasticity suppresses interfacial snap-off and helps to sustain a more continuous oil phase. An elastic bridge is much less prone to break and therefore can pull more volumes of oil out (more production).
The behavior of the bridge is monitored with an APPRO camera at a frame rate of 60 frames per second and its geometry is tracked by measuring the neck diameter (ND). The neck diameter is the lowest radius along the vertical axis. The critical neck diameter (CND) is the value corresponding to the last frame of the connected bridge. The ratio of CND/ND is a stability proxy, and assumptions are made that a value close to zero indicates prevalent elastic forces.

[4] = Solubility of acids in brine; type: physicochemical; conditions: no pH adjustment
Procedure: A 1% Na2SO4 brine, equivalent to 2.24 mM (low salinity) and an ionic strength of 6.7 mM, was prepared and vacuumed for two hours before use. The brine was selected because it served as the baseline aqueous phase for the coreflooding experiments. Brine aliquots were then mixed with each of the 18 acid solutions at various concentrations and mixed into solution for several days. […] No adjustments were made to the brine to bring the acids into solution; at higher brine pH, larger naphthenic acids (NAs) solubilize more readily, while smaller ones can often dissolve at neutral pH. At higher pH, the potential for micelle and reverse micelle formation increases. However, embodiments described herein relate to acids that partition naturally, rather than those coaxed from the oil phase, so pH adjustments were not made in order to examine the influence of the acids in the system.
Additionally, the naphthenic acid mixture (NAmix1) was analyzed.

Row | SMILES | Δd3 day 5 [1] | Δσ day 5 [1] | Δd3 day 14 [1] | Δσ day 14 [1] | effect on emulsion stability compared to 1% Na2SO4 brine [1] | tan (δ) ([2]; GB oil) [%] | Fractional G′ ([2]; GB oil) | Fractional G″ ([2]; GB oil) [%] | aging time after which skin was observed [3] [h] | bridge break behaviour (elastic / inelastic) [3] | delay of snap-off / bridge failure compared to low-salinity brine [3] | solubility in 1% Na2SO4 brine [4] | aging time after which solid-like film (skin) was visible [3] | G′ value (elastic modulus) ([2]; 1 mM acid, day 5, GB oil) | G″ value (viscous modulus) ([2]; 1 mM acid, day 5, GB oil) | interface relative to un-acidified brine values ([2]; 10 mM acid, day 5, GB oil) [%] | concentration at which G′ and G″ plateau (acid believed to form aggregates) ([2]; GB oil, 1% Na2SO4 brine)
1 | O=C(O)[C@@H]1CCCN1 [L-Proline, L-proline] | 1.045 | 0.1325 | 1.115 | 0.1722 | stabilize the emulsions | 114 | 53% | 47 |  |  |  |  |  |  |  |  | 
2 | Cc1ccc(C(=O)O)cc1 [NA12, p-toluic acid] | 1.315 | 0.1998 | 1.6025 | 0.3463 | does not encourage coalescence | 189 | 25.8%^ | 48.8 |  |  |  |  |  |  |  |  | 
3 | O=C(O)C1CCCC1 [NA14, cyclopentane carboxylic acid] | 1.3475 | 1.3475 | 1.4425 | 0.259 | stabilize the emulsions | 90.6 | 151% | 137 | ~12 | more elastic break | delays snap-off |  |  |  |  |  | 
4 | O=C(O)C1CCCCC1 [NA18, cyclohexane carboxylic acid] | 1.5395 | 0.1263 | 1.572 | 0.2238 | stabilize the emulsions | 127 | 42% | 53.5 |  | asymmetric elastic skin | delayed bridge failure the longest | especially soluble at higher concentrations | about 10 minutes | about 100 mPa | about 35 mPa | 21.2 | above 2.5 mM
